Measurements: patent publication US20100160454A1, “ANTIMICROBIAL AGENTS, COMPOSITIONS AND PRODUCTS CONTAINING THE SAME, AND METHODS OF USING THE COMPOSITIONS AND PRODUCTS” (Eastman Chemical Company, priority 2008, published 2010)

Experiments:
Experiment in all cases: Microbiological challenge testing in BPW broth, graded subculture counts
Type in all cases: cell-based
[1] = tested on: Proteus vulgaris Wild type
Procedure: (§1) The microorganisms in the table below were used in challenge tests. They were either ATCC (American Type Culture Collection) or “wild type” as indicated. Wild type organisms were problematic organisms previously isolated from chemical products.
(§2) All of the microorganisms were grown in Tryptose Soy Broth (TSB), DIFCO™ available from Becton, Dickinson and Company, containing 1% dextrose. Candida albicans and Aspergillus niger, were incubated at 22° C.+/−2° C. for at least 96 hours. All bacteria were incubated at 35° C.+/−2° C. in a humidified incubator for at least 96 hours.
(§3) The following procedure was followed to determine the amount of each challenge material (inoculum broth) needed to produce a 10^8 CFU/mL challenge, which is equivalent to a final test-sample microbial concentration of 10^5 to 10^6 CFU/mL (CFU=colony forming units).
(§4) Using a sterile pipette, 1 mL of the growth from each TSB culture was transferred into tubes of 9 mL buffered water (pH 7.2 phosphate buffer) and mixed thoroughly. This was repeated to make serial 1:10 dilutions. Then, 0.1 mL of each sample and dilution was inoculated onto agar plates to produce the equivalent of a further 1:10 dilution. (C. albicans and A. niger were inoculated onto SABD and bacteria were inoculated onto Plate Count Agar (PCA), DIFCO™ available from Becton, Dickinson and Company.) (The normal volume plated for most samples was 0.1 mL. Some samples that could be very low in micro-organisms (high dilutions) were plated using 0.5 mL of inoculum, in order to produce reproducible counts.) The samples were distributed on the plates using the spread-plate technique. The spread-plate technique is carried out by spreading the sample over the entire plate surface using a sterile spreading rod while rotating the plate with a rotary auto-plater. After the inoculum was absorbed completely by the agar, each plate was inverted and incubated (fungi at 22° C.+/−2° C. and bacteria at 35° C.+/−2° C.).
(§5) After incubation for at least 48 hours, colonies that had developed on the agar plates were counted (CFU) and recorded with the corresponding dilution. If counting had to be delayed temporarily, plates were refrigerated, preferably no more than 24 hours, until they could be counted. The number of CFU/mL was determined by multiplying the plate count by the dilution factor of the plate counted.
(§6) Turbidity in Nepholemetric Turbidity Units (NTU) was measured for each serial dilution using the HF-Micro 100 Model Turbidimeter. For each microorganism, the plate counts were compared to the turbidity readings.
(§7) Control substrates (“broth alone”) were prepared for each microorganism separately in triplicate by adding 13.5 mL of Buffered Peptone Water broth (BPW) containing 1% dextrose to each 20-mL glass tube, then adding 1.5 mL challenge material to produce a final concentration at time zero of 10^5 to 10^6 CFU/mL and a total volume of 15 mL.
(§8) Test sample substrates were prepared containing each test material listed below at the concentrations shown for challenge testing with each microorganism separately. Sample substrates were prepared in triplicate, except the substrates containing butoxyethanol which were prepared in duplicate. Substrates were prepared by adding BPW containing 1% dextrose to each 20-mL glass tube, then adding the test material in the amount appropriate to achieve the desired weight/volume percent and to achieve a total volume of BPW plus dextrose plus test material of 13.5 mL. Then 1.5 mL challenge material was added to produce a final concentration at time zero of 10^5 to 10^6 CFU/mL and a total test sample substrate volume of 15 mL.

[2] = tested on: Staphylococcus aureus ATCC 25923; settings: S. aureus
Procedure: as §1, §2, §3, §4, §5, §6, §7, §8

[3] = tested on: Bacillus subtilis Wild type
Procedure: as §1, §2, §3, §4, §5, §6, §7, §8

[4] = tested on: Staphylococcus epidermidis ATCC 12228
Procedure: as §1, §2, §3, §4, §5, §6, §7, §8

O=C([O-])CN(CCN(CC(=O)[O-])CC(=O)O)CC(=O)O.[Na+].[Na+] [EDTA, Na2EDTA]
P. vulgaris growth grade, 3 day ([1]; 0.5% weight/volume): 5 (More than 10,000 colonies estimated (thus more than 100,000 CFU/mL))
P. vulgaris growth grade, 13 day ([1]; 0.5% weight/volume): 4 (1000 to 10,000 colonies countable (thus 10,000 CFU/mL to 100,000 CFU/mL))
P. vulgaris growth grade, 30 day ([1]; 0.5% weight/volume): 4 (1000 to 10,000 colonies countable (thus 10,000 CFU/mL to 100,000 CFU/mL))
P. vulgaris growth grade, 3 day ([1]; 1.25% weight/volume): 3 (100 to 1000 colonies (thus 1000 to 10,000 CFU/mL))
P. vulgaris growth grade, 13 day ([1]; 1.25% weight/volume): 1 (0 to 51 colonies counted (thus 10 to 510 CFU/mL based on 0.1-mL sample))
P. vulgaris growth grade, 30 day ([1]; 1.25% weight/volume): 3 (100 to 1000 colonies (thus 1000 to 10,000 CFU/mL))
P. vulgaris growth grade, 3 day ([1]; 2.5% weight/volume): 4 (1000 to 10,000 colonies countable (thus 10,000 CFU/mL to 100,000 CFU/mL))
P. vulgaris growth grade, 13 day ([1]; 2.5% weight/volume): 4 (1000 to 10,000 colonies countable (thus 10,000 CFU/mL to 100,000 CFU/mL))
P. vulgaris growth grade, 30 day ([1]; 2.5% weight/volume): 4 (1000 to 10,000 colonies countable (thus 10,000 CFU/mL to 100,000 CFU/mL))
P. vulgaris growth grade, 3 day ([1]; 5.0% weight/volume): 4 (1000 to 10,000 colonies countable (thus 10,000 CFU/mL to 100,000 CFU/mL))
P. vulgaris growth grade, 13 day ([1]; 5.0% weight/volume): 4 (1000 to 10,000 colonies countable (thus 10,000 CFU/mL to 100,000 CFU/mL))
P. vulgaris growth grade, 30 day ([1]; 5.0% weight/volume): 4 (1000 to 10,000 colonies countable (thus 10,000 CFU/mL to 100,000 CFU/mL))
Grade ([2]; 0.5% (wt/vol), 3 day): 4 (1000 to 10,000 colonies countable (thus 10,000 CFU/mL to 100,000 CFU/mL))
Grade ([2]; 0.5% (wt/vol), 14 day): 4 (1000 to 10,000 colonies countable (thus 10,000 CFU/mL to 100,000 CFU/mL))
Grade ([2]; 0.5% (wt/vol), 30 day): 4 (1000 to 10,000 colonies countable (thus 10,000 CFU/mL to 100,000 CFU/mL))
Grade ([2]; 1.25% (wt/vol), 3 day): 2.7
Grade ([2]; 1.25% (wt/vol), 14 day): 2 (52 to 100 colonies counted (thus 520 to 1000 CFU/mL))
Grade ([2]; 1.25% (wt/vol), 30 day): 2 (52 to 100 colonies counted (thus 520 to 1000 CFU/mL))
Grade ([2]; 2.5% (wt/vol), 3 day): 1 (0 to 51 colonies counted (thus 10 to 510 CFU/mL based on 0.1-mL sample))
Grade ([2]; 2.5% (wt/vol), 14 day): 0.3
Grade ([2]; 2.5% (wt/vol), 30 day): 0.3
Grade ([2]; 5.0% (wt/vol), 3 day): 0
Grade ([2]; 5.0% (wt/vol), 14 day): 0
Grade ([2]; 5.0% (wt/vol), 30 day): 0
B. subtillis growth grade, 3 day ([3]; 0.5% weight/volume): 4 (1000 to 10,000 colonies countable (thus 10,000 CFU/mL to 100,000 CFU/mL))
B. subtillis growth grade, 14 day ([3]; 0.5% weight/volume): 4 (1000 to 10,000 colonies countable (thus 10,000 CFU/mL to 100,000 CFU/mL))
B. subtillis growth grade, 30 day ([3]; 0.5% weight/volume): 4 (1000 to 10,000 colonies countable (thus 10,000 CFU/mL to 100,000 CFU/mL))
B. subtillis growth grade, 3 day ([3]; 1.25% weight/volume): 2 (52 to 100 colonies counted (thus 520 to 1000 CFU/mL))
B. subtillis growth grade, 14 day ([3]; 1.25% weight/volume): 2 (52 to 100 colonies counted (thus 520 to 1000 CFU/mL))
B. subtillis growth grade, 30 day ([3]; 1.25% weight/volume): 2 (52 to 100 colonies counted (thus 520 to 1000 CFU/mL))
B. subtillis growth grade, 3 day ([3]; 2.5% weight/volume): 0
B. subtillis growth grade, 14 day ([3]; 2.5% weight/volume): 0
B. subtillis growth grade, 30 day ([3]; 2.5% weight/volume): 0
B. subtillis growth grade, 3 day ([3]; 5.0% weight/volume): 0
B. subtillis growth grade, 14 day ([3]; 5.0% weight/volume): 0
B. subtillis growth grade, 30 day ([3]; 5.0% weight/volume): 0
S. epidermidis growth grade, 3 day ([4]; 0.5% weight/volume): 4 (1000 to 10,000 colonies countable (thus 10,000 CFU/mL to 100,000 CFU/mL))
S. epidermidis growth grade, 13 day ([4]; 0.5% weight/volume): 3 (100 to 1000 colonies (thus 1000 to 10,000 CFU/mL))
S. epidermidis growth grade, 30 day ([4]; 0.5% weight/volume): 4 (1000 to 10,000 colonies countable (thus 10,000 CFU/mL to 100,000 CFU/mL))
S. epidermidis growth grade, 3 day ([4]; 1.25% weight/volume): 2 (52 to 100 colonies counted (thus 520 to 1000 CFU/mL))
S. epidermidis growth grade, 13 day ([4]; 1.25% weight/volume): 1 (0 to 51 colonies counted (thus 10 to 510 CFU/mL based on 0.1-mL sample))
S. epidermidis growth grade, 30 day ([4]; 1.25% weight/volume): 0
